# Target: T1, XynR (WT) (Halalkalibacterium halodurans, UniProt P07528)
# T1 construct: gene xynA; pET-21b(+)-XynR expressed in E. coli BL21(DE3), purified on HisTrap (His-tagged); residues 2-359 modelled in 2 chains; catalytic E150/E256
# Experiment: X-ray crystallography, […] A (co-crystallisation and soaking)
# Assay type: binding
# Conditions: 0.35 M xylobiose, Tris-HCl pH 8.0 mixed with reservoir pH 4.6 (0.02 M CaCl2, acetate, MPD), 20 °C; active site, subsites +1 and +2
# T1 sequence (P07528 46-396): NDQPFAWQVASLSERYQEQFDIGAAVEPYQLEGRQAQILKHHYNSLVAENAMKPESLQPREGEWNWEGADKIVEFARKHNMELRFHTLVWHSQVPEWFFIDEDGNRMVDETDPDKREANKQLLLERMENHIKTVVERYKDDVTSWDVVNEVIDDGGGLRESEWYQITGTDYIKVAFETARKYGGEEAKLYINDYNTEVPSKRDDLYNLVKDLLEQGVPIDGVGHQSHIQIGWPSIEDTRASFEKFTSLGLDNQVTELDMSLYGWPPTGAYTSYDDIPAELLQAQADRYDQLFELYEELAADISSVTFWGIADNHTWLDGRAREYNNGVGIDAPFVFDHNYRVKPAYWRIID
compound,measurement,value
OC1OC[C@@H](O[C@@H]2OC[C@@H](O)[C@H](O)[C@H]2O)[C@H](O)[C@H]1O (stereo partly shown) [xylobiose],"X-ray crystallography, 1.80 A (co-crystallisation and soaking)",we made crystallographic analysis of WT complexed with xylobiose

# Reference: publication PMC10987496, “Activity-stability trade-off observed in variants at position 315 of the GH10 xylanase XynR” (Scientific Reports, 2024)
